Publication PMC12136037, “Type II kinase inhibitors that target Parkinson’s disease–associated LRRK2” (Science Advances, 2025)
Several values for one entry are separate records, joined by “and”; a condition that tells them apart may be missing. Equal values may be shown once.

Legend:
LRRK2^RCKW = biological target: T1, LRRK2^RCKW (Homo sapiens, UniProt Q5S007); assay: Biochemical LRRK2 activity assay (PhosphoSense, AssayQuant SOX peptide AQT0615); conditions: normalized to 0% (no kinase) and 100% (no inhibitor) control, two singlicate columns per compound
T1 construct: LRRK2 R1327 to E2527; His6-Z-tag (TEV cleavable) (N, cleaved yes); host or cells: Sf9 insect cells (baculovirus)
T1 sequence (Q5S007 1327-2527): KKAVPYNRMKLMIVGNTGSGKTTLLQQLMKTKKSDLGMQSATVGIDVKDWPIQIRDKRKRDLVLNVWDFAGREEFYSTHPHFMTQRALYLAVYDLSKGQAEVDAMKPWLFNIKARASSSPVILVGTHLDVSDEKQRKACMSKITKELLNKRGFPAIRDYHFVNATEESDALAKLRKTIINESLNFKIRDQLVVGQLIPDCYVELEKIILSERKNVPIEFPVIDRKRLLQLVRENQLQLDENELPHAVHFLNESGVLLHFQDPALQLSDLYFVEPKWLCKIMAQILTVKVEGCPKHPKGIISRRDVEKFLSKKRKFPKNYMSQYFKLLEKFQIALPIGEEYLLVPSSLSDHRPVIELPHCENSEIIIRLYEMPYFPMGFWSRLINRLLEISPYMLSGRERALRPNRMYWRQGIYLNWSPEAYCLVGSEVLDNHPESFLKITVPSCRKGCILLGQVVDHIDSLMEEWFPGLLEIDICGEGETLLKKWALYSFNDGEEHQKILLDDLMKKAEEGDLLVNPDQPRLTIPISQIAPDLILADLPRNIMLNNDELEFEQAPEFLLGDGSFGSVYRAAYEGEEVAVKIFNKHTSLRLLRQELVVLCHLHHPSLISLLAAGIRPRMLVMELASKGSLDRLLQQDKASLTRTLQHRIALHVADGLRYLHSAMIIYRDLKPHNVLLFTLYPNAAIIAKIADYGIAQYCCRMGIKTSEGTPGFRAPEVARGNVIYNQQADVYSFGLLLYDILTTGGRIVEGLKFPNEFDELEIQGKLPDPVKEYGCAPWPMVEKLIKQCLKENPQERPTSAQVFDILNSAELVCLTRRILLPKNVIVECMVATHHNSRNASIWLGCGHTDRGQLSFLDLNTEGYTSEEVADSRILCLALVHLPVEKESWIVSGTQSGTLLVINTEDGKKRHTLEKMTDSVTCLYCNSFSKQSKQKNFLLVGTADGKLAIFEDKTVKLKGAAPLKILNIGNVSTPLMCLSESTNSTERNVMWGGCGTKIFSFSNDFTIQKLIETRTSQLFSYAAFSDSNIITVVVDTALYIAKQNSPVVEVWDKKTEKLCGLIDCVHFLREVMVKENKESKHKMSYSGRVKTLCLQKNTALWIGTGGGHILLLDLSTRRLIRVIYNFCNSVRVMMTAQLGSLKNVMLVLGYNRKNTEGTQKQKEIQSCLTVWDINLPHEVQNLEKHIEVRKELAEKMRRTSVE
Description: Two wells per compound were used as 0% (without protein and compound) and 100% (without compound) control. […] The 0% control wells were filled with 10 μl of pure reaction buffer. With the ECHO, 5 nl of 100 mM ATP was pipetted into each well, the plates were centrifuged at 1500g for 2 min, and the reaction was incubated at room temperature for 4 hours. The fluorescence of the SOX-peptide after 360-nm excitation was measured at 487-nm emission with a PHERAstar plate reader (BMG Labtech). The IC50 values were calculated from a nonlinear regression of the log[inhibitor] versus the normalized response with GraphPad Prism 8 (www.graphpad.com/, RRID:SCR_002798).

LRRK2^KW = biological target: T2, LRRK2^KW (Homo sapiens, UniProt Q5S007); assay: DSF thermal stabilization of LRRK2^KW; assay type: binding; conditions: for dTm LRRK2(KW) [K]: screen of 31 type-II inhibitors, Table S1
T2 construct: LRRK2 R1847 to E2527; His6-Z-tag (TEV cleavable) (N, cleaved yes); host or cells: Sf9 insect cells (baculovirus)
T2 sequence (Q5S007 1847-2527): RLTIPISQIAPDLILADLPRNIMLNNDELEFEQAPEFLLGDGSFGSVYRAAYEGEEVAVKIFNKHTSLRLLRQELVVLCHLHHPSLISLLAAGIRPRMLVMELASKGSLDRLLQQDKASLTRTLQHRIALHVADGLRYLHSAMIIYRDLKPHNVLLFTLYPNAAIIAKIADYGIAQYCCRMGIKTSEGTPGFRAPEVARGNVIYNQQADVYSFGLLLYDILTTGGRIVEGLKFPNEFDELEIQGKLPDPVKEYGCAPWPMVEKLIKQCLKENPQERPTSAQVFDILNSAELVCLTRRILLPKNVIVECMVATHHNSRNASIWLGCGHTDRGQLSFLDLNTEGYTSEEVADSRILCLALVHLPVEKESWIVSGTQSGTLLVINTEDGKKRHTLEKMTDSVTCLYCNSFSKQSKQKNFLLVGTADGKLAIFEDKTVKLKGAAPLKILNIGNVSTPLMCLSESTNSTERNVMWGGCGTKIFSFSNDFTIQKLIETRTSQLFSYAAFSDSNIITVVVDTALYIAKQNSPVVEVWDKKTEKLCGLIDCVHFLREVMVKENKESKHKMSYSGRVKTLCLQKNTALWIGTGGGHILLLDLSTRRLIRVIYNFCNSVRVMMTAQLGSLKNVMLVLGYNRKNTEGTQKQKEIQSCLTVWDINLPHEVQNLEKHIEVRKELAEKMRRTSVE
Description: To characterize binding between small molecules and LRRK2^KW, induced thermal stabilization was measured by DSF according to previously established protocols ([47]). In brief, LRRK2^KW was diluted to 4 μM in 20 mM Hepes (pH 7.4), 150 mM NaCl, 0.5 mM TCEP, 0.5% glycerol, 20 μM GDP, and 2.5 mM MgCl2, and SYPRO Orange was added (1:1000, MilliporeSigma). Inhibitor (10 μM) to be tested was added to a final sample volume of 20 μl per well of a 96-well plate (white, Starlab). […] The fluorescence was plotted against the temperature, and the melting point (Tm) was determined as the minimum of the first derivative relative to the control.

Compound | dTm LRRK2(KW) [K] (LRRK2^KW) | further results
COc1cc(S(C)(=O)=O)ccc1Nc1nc(N(C)C)c2c(-c3cccc(NC(=O)Nc4cc(C(C)(C)C)nn4-c4ccc5ncccc5c4)c3)c[nH]c2n1 [Compound 35] |  | normalized response (LRRK2 activity) (LRRK2^RCKW; log[inhibitor(mol)] -6.90309): 115.444% and 117.007%; normalized response (LRRK2 activity) (LRRK2^RCKW; log[inhibitor(mol)] -7.30103): 105.55% and 105.293%; normalized response (LRRK2 activity) (LRRK2^RCKW; log[inhibitor(mol)] -7.60206): 108.325% and 105.046%; normalized response (LRRK2 activity) (LRRK2^RCKW; log[inhibitor(mol)] -8.09691): 100.105% and 95.8379%; normalized response (LRRK2 activity) (LRRK2^RCKW; log[inhibitor(mol)] -8.61979): 94.7466% and 91.6315%; normalized response (LRRK2 activity) (LRRK2^RCKW; log[inhibitor(mol)] -9.09691): 101.92% and 85.7909%; normalized response (LRRK2 activity) (LRRK2^RCKW; log[inhibitor(mol)] -9.39794): 98.761% and 96.3918%; ∆Tm (K) (LRRK2^KW; DSF, LRRK2^KW, 10 μM inhibitor): 1.5 K
Cc1ccc(NC(=O)c2ccc(CN3CCN(C)CC3)cc2)cc1Nc1nccc(-c2cccnc2)n1 [Imatinib, reference compound] | 0 | 
CCOc1ccn(-c2ccc(F)cc2)c(=O)c1C(=O)Nc1ccc(Oc2ccnc(N)c2Cl)c(F)c1 [BMS 777607, reference compound] | 6.8 | 
CC(C)(C)c1cc(NC(=O)Nc2ccc(-c3cn4c(n3)sc3cc(OCCN5CCOCC5)ccc34)cc2)no1 [Quizartinib, reference compound] | 3.5 | 
Cc1ccc(C(=O)Nc2cccc(C(F)(F)F)c2)cc1Nc1nc(-c2cccnc2)nc2c1cnn2C [NVP-BHG712, reference compound] | -0.5 | 
Cc1csc(-c2nnc(Nc3ccc(Oc4ncccc4-c4ccnc(N)n4)cc3)c3ccccc23)c1 [AMG 900, reference compound] | 4.5 | 
FC(F)(F)c1ccc(CNc2ccc(Cc3c[nH]c4ncc(Cl)cc34)cn2)cn1 [Pexidartinib, reference compound] | 6.8 | 
Cc1ccc(NC(=O)c2ccc(CN3CCN(C)CC3)cc2)cc1Nc1nc(-c2cccnc2)cs1 [Masitinib, reference compound] | 0 | 
Cc1ccc(F)c(NC(=O)Nc2ccc(-c3cccc4[nH]nc(N)c34)cc2)c1 [Linifanib, reference compound] | 5.8 | 
COc1cc2nccc(Oc3ccc(NC(=O)Nc4cc(C)on4)c(Cl)c3)c2cc1OC [Tivozanib (AV-951), reference compound] | 11.5 | 
CCN1CCN(Cc2ccc(NC(=O)c3ccc(C)c(NC(=O)c4cncc(-c5cccs5)c4)c3)cc2C(F)(F)F)CC1 [ALW-II-41-27, reference compound] | -0.5 | 
Cc1cn(-c2cc(NC(=O)c3ccc(C)c(Nc4nccc(-c5cccnc5)n4)c3)cc(C(F)(F)F)c2)cn1 [Nilotinib, reference compound] | -2.5 | 
CNC(=O)c1cc(Oc2ccc(NC(=O)Nc3ccc(Cl)c(C(F)(F)F)c3)c(F)c2)ccn1 [Regorafinib, reference compound] | 5.5 | 
COc1cc2nccc(Oc3ccc(NC(=O)C4(C(=O)Nc5ccc(F)cc5)CC4)cc3)c2cc1OC [Cabozantinib, reference compound] | 7.5 | 
N#CC1(c2ccc(NC(=O)c3cccnc3NCc3ccncc3)cc2)CCCC1 [Apatinib, reference compound] | -1 | 
CN1CCN(C2CCN(C(=O)Nc3cc(Oc4ccc(NC(=O)C5(C(=O)Nc6ccc(F)cc6)CC5)c(F)c4)ccn3)CC2)CC1 [Golvatinib, reference compound] | 0.5 | 
CC1(C)CNc2cc(NC(=O)c3cccnc3NCc3ccncc3)ccc21 [Motesanib, reference compound] | -0.5 | 
CNC(=O)c1ccccc1Sc1ccc2c(/C=C/c3ccccn3)n[nH]c2c1 [Axitinib, reference compound] | 7.5 | 
COC(=O)c1ccc2c(c1)NC(=O)/C2=C(\Nc1ccc(N(C)C(=O)CN2CCN(C)CC2)cc1)c1ccccc1 [Nintedanib, reference compound] | 5 | 
Cc1ccc(NC(=O)c2cccc(C(C)(C)C#N)c2)cc1Nc1ccc2ncn(C)c(=O)c2c1 [AZ 628, reference compound] | -0.5 | 

More lines, main results first:

dTm LRRK2(KW) [K] (LRRK2^KW) | Compound | further results
11 | Cc1ccc(-n2nc(C(C)(C)C)cc2NC(=O)Nc2cc(COc3cccnc3)[nH]n2)cc1 [PF-4618433, reference compound] | 
-1 | Cc1ccc(NC(=O)c2cccc(N(C)C)c2)cc1NC(=O)c1ccc(O)cc1 [ZM336372, reference compound] | 
0 | O=C(Nc1ccc(OC(F)(F)F)cc1)c1sccc1NCc1ccnc2ccccc12 [OSI-930, reference compound] | 
3 | COc1cc(Oc2ccnc3cc(OC)c(OC)cc23)ccc1NC(=O)NC(C)c1nccs1 (stereo not shown) [KI20227, reference compound] | 
6.5 | COc1cc2c(Nc3ccc(NC(=O)c4ccccc4)cc3)ncnc2cc1OCCCN1CCOCC1 [ZM447439, reference compound] | 
10 | CCN1CCN(Cc2ccc(NC(=O)Nc3ccc(Oc4cc(NC)ncn4)cc3)cc2C(F)(F)F)CC1 [AST-487, reference compound] | 
0 | Cc1ccc(-n2nc(C(C)(C)C)cc2NC(=O)Nc2ccc(OCCN3CCOCC3)c3ccccc23)cc1 [BIRB-796, reference compound] | 
